Data from US8871767B2, “2-arylimidazo[1,2-B]pyridazine, 2-phenylimidazo[1,2-A]pyridine, and 2-phenylimidazo[1,2-A]pyrazine derivatives” (Hengrui (USA) Ltd., priority 2010, dated 2014).
Where two headings read alike, the source gives them in different places.

How the values were obtained:
[1] = test system: Hedgehog pathway activation on 10T1/2/Smo#3 cells (C3H10T1/2 cells transfected with human Smoothened receptor); test: Hedgehog pathway activation on 10T1/2/Smo#3 cells measured by ALP activity; format: cell-based
Outline: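 C3H10T1/2 cells stably expressing human Smoothened were activated with hShh-conditioned medium (10-20%) or 500 nM SAG, with test compounds present. Pathway block read as inhibited ALP activity (4-methylumbelliferyl phosphate fluorescence); viability checked by CellTiter-Blue. IC50 values reported.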

[2] = test system: Hedgehog pathway activation (GLi-luciferase reporter) in Shh Light II reporter cells; test: Hedgehog pathway activation on Shh Light II reporter cells measured by luciferase activity; format: cell-based
Outline: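 Shh Light II reporter cells carrying a hedgehog-responsive GLi-luciferase reporter were stimulated either with 500 nM SAG, a direct Smoothened agonist, or with conditioned media containing human Sonic Hedgehog (hShh). Test compounds were evaluated for blocking this pathway activation, quantified by luciferase activity. Cell viability was monitored in parallel with the Celltiter-Blue® assay.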

[3] = Mus musculus, C3H 10T1/2, 10T1/2/Smo#3 cells, measured by ALP activity, read-out: ALP (IC50, inhibition of Hedgehog pathway activation)
[4] = Mus musculus, Shh Light II, hShh activation, read-out: Shh (IC50, inhibition of Hedgehog pathway activation)
[5] = Mus musculus, C3H 10T1/2, 10T1/2/Smo#3 cells, hShh activation, ALP activity, read-out: 10T1/2/Smo#3 ALP activity (hShh Activation)
[6] = Mus musculus, Shh Light II, SAG activation (500 nM SAG), read-out: Shh Light II luciferase activity (SAG activation)
[7] = Mus musculus, Shh Light II, hShh activation, read-out: Shh Light II luciferase activity (hShh activation)

Compound | IC50 [1, 3] [nM] | IC50 [2, 4] [nM] | IC50 [1, 5] [nM] | IC50 [2, 6] [nM] | IC50 [2, 7] [nM] | IC50 ([1]; 10T1/2/Smo#3 cells, measured by ALP activity, read-out: ALP (IC50, inhibition of Hedgehog pathway activation)) [nM] | IC50 ([2]; hShh activation, read-out: Shh (IC50, inhibition of Hedgehog pathway activation)) [nM]
Cc1ccc(-c2cn3nc(N4CCC(C(N)=NO)CC4)ccc3n2)cc1NC(=O)C(C)(C)C [compound 566] | 371 | 285 |  |  |  |  | 
Cc1ccc(-c2cn3nc(-c4ccc(C(N)=NO)cc4F)ccc3n2)cc1NC(=O)C(C)(C)C [compound 567] | 298 | 219 |  |  |  |  | 
CC(C)(C)C(=O)Nc1cc(-c2cn3nc(N4CCN(C(=N)N)CC4)ccc3n2)ccc1C(F)(F)F [compound 570] | 730 | 240 |  |  |  |  | 
CC1CN(C(=N)N)CCN1c1ccc2nc(-c3ccc(C(F)(F)F)c(NC(=O)C(C)(C)C)c3)cn2n1 (stereo not drawn) [compound 571] | 554 | 129 |  |  |  |  | 
COC(=O)C=Cc1ccc(Cl)c(-c2ccc3nc(-c4ccc(C)c(NC(=O)C(C)(C)C)c4)cn3n2)c1 [compound 573] | 1040 | 70 |  |  |  |  | 
Cc1ccc(-c2cn3nc(-c4cccc(C(=O)Nc5ccccc5N)c4)ccc3n2)cc1NC(=O)C(C)(C)C [compound 598] | 424 | 59 |  |  |  |  | 
Cc1ccc(-c2cn3nc(NCc4ccc(C(=O)NOC5CCCCO5)cc4)ccc3n2)cc1NC(=O)C(C)(C)C (stereo not drawn) [compound 600] | > 10000 | 130 |  |  |  |  | 
CCOC(=O)C=Cc1cccc(C(=O)Nc2ccc3nc(-c4ccc(C)c(NC(=O)C(C)(C)C)c4)cn3n2)c1 [compound 602] | 314 | 155 |  |  |  |  | 
Cc1ccc(-c2cn3nc(NS(=O)(=O)c4cccc(C=CC(=O)NO)c4)ccc3n2)cc1NC(=O)C(C)(C)C [compound 606] | 484 | 66 |  |  |  |  | 
N-(2-(2-(trifluoromethyl)pyridin-3-yl)-5-(6-(2-(trifluoromethyl)pyridin-3-yl)imidazo[1,2-b]pyridazin-2-yl)phenyl)pivalamide [Example 663] |  |  |  |  |  | 3540 | 6230

The remaining lines, values ahead:

IC50 [1, 3] [nM] | IC50 [2, 4] [nM] | IC50 [1, 5] [nM] | IC50 [2, 6] [nM] | IC50 [2, 7] [nM] | IC50 ([1]; 10T1/2/Smo#3 cells, measured by ALP activity, read-out: ALP (IC50, inhibition of Hedgehog pathway activation)) [nM] | IC50 ([2]; hShh activation, read-out: Shh (IC50, inhibition of Hedgehog pathway activation)) [nM] | Compound
60 | 20 |  |  |  |  |  | Cc1ccc(-c2cn3nc(-c4ccc(C#N)cc4Cl)ccc3n2)cc1NC(=O)C(C)(C)C [compound 564]
61 | 9 |  |  |  |  |  | Cc1ccc(-c2cn3nc(-c4cc(C#N)ccc4Cl)ccc3n2)cc1NC(=O)C(C)(C)C [compound 565]
99 | 100 |  |  |  |  |  | Cc1ccc(-c2cn3nc(-c4ccc(C(N)=NO)cc4Cl)ccc3n2)cc1NC(=O)C(C)(C)C [compound 568]
86 | 32 | < 300 | 300 to 3000 | < 300 |  |  | Cc1ccc(-c2cn3nc(-c4cc(C(N)=NO)ccc4Cl)ccc3n2)cc1NC(=O)C(C)(C)C [compound 569]
30 | 20 |  |  |  |  |  | Cc1ccc(-c2cn3nc(NC(=O)c4cccc(Br)c4)ccc3n2)cc1NC(=O)C(C)(C)C [compound 594]
94 | 18 |  |  |  |  |  | Cc1ccc(-c2cn3nc(-c4cc(C#N)ccc4C(F)(F)F)ccc3n2)cc1NC(=O)C(C)(C)C [compound 596]
285 | 39 | < 300 | < 300 | < 300 |  |  | Cc1ccc(-c2cn3nc(-c4ccc(C(=O)Nc5ccccc5N)cc4)ccc3n2)cc1NC(=O)C(C)(C)C [compound 597]
248 | 48 |  |  |  |  |  | Cc1ccc(-c2cn3nc(NCc4ccc(C(=O)Nc5ccccc5N)cc4)ccc3n2)cc1NC(=O)C(C)(C)C [compound 599]
40 | 66 |  |  |  |  |  | Cc1ccc(-c2cn3nc(-c4cc(C(N)=NO)ccc4C(F)(F)F)ccc3n2)cc1NC(=O)C(C)(C)C [compound 601]
62 | 30 | < 300 | < 300 | < 300 |  |  | Cc1ccc(-c2cn3nc(NC(=O)c4cccc(C=CC(=O)NO)c4)ccc3n2)cc1NC(=O)C(C)(C)C [compound 605]
145 | 198 | < 300 | 300 to 3000 | < 300 |  |  | Cc1ccc(-c2cn3nc(-c4cccnc4C(F)(F)F)ccc3n2)cc1NC(=O)c1cccc(C=CC(=O)Nc2ccccc2N)c1 [compound 623, 3-(3-((2-aminophenyl)amino)-3-oxoprop-1-en-1-yl)-N-(2-methyl-5-(6-(2-(trifluoromethyl)pyridin-3-yl)imidazo[1,2-b]pyridazin-2-yl)phenyl)benzamide]
